In general, Kd refers to the free concentration of one partner at which half of the binding sites on the other are occupied at equilibrium, for simple one-to-one binding.

The source made the active and inactive calls. No cut-off for these calls is given here.

The target of assay [1] is T1, Catenin beta-1 (Homo sapiens) (UniProt P35222).
T1 sequence (whole entry): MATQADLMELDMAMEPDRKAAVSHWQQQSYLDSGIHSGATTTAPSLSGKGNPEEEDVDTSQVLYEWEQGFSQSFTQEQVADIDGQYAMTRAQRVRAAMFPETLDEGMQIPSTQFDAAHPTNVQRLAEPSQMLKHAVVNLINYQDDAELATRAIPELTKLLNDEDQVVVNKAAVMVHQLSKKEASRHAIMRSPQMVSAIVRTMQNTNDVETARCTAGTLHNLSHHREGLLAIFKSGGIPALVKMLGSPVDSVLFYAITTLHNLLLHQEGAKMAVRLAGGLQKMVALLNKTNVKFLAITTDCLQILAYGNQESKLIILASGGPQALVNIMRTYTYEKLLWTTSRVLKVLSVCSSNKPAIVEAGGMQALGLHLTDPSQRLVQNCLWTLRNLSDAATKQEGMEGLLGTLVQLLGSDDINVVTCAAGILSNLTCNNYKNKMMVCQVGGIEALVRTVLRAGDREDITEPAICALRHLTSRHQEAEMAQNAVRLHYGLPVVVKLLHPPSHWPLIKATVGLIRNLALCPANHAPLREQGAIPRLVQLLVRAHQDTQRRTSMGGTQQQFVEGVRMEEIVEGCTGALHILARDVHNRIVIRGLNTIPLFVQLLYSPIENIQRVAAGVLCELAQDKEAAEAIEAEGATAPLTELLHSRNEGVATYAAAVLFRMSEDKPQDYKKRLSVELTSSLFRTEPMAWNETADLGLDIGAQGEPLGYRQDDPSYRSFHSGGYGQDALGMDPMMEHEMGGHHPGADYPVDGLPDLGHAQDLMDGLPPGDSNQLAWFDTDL
In words: Binding affinity to human beta-catenin at 1 mM by 1H-STD NMR analysis.

Assay [2] is described as follows: Binding affinity to quail lipocalin Q83 at 200 uM by tryptophan fluorescence quenching experiment. Details: species or system Galliformes.
In assay [3] the test system is Galliformes. In words: Binding affinity to quail lipocalin Q83 by 1H-15N HSQC-based NMR analysis.
Assay [4] is described as follows: Binding affinity to quail lipocalin Q83 assessed as second molecule binding at 2:1 compound:protein ratio by […]. Details: species or system Galliformes.
Assay [5] is described as follows: Binding affinity to quail lipocalin Q83 assessed as first molecule binding at 2:1 compound:protein ratio by […]. The arrangement: species or system Galliformes.

Take `O=C1OC2(c3ccc(O)cc3Oc3cc(O)ccc32)c2ccccc21`: the result in assay [1] was Active.

As to `Cc1c(Br)cc2c(-c3ccccc3C(=O)O)c3cc(Br)c(=O)c(Br)c-3oc2c1Br`, the outcome in assay [1] was Active.

For `Nc1ccc(/N=N/c2ccc(S(=O)(=O)O)cc2)cc1S(=O)(=O)O`, the Kd in assay [2] worked out at 25 µM. Also, the result in assay [3] was Active.

As for `COc1cc(C(=O)O)ccc1O` [VANILLIC ACID], the Kd is 70 mM in assay [4] and 500 µM in assay [5]. Moreover, in assay [3], the result was Active.

The values are drawn from ChEMBL document CHEMBL2169834, “Toward rational fragment-based lead design without 3D structures” (J Med Chem, 2012).
